In brackets after ≈: the same amount, converted by molar mass. Read-outs that look alike come from different tables or passages of the source. Numbered stars: 1 amine (or outer) side, 2 acyl side, 3 side chain; on linkers, the order of the positions; unused ones are H or OH. Bridge positions count the residues as written; N and C are the ends. Peptide text beside a SMILES is read from it. I, II: the chains in the order shown. X2 = c1ccc([Si](O[*:1])(O[*:2])c2ccccc2)cc1; OSiEt2O = CC[Si](CC)(O[*:1])O[*:2]
Tests used:
Medulloblastome = test: Effect on medulloblastomas
[1] = system: WI38 - humane embryonale Fibroblasten; test: MTT assay / EZ4U test, 4 days; assay type: cell-based; settings: Homo sapiens
Protocol: (§1) Die Silane 1, 5, 9, 10, 11, 13, 15, 16 wurden in Ethanol gelöst und in MTT Assays in einer anfänglichen Konzentration von 200 µg/ml (5 Lösungsschritte 200 - 12.5 µg/ml) verwendet. Die Platten wurde für eine Dauer.von 4 Tagen inkubiert und die Entwicklungsfähigkeit mithilfe des EZ4U Test bestimmt. Die IC50 Werte wurden ausgehend von Dosierungs-Reaktions-Linien berechnet Zelllinien: Colo 205 and HT29 - Kolonkarzinom; BxPC3 and MIAPaCa2 - Pankreaskrebs; CRO2B - karzinoid, A431 Epidermalkarzinom; normale Zellen: WI38 - humane embryonale Fibroblasten; NIH3T3 - mausartige Fibroblasten; IEC6 - mausartige Enterozyten.

A431 Epidermalkarzinom = test: MTT assay / EZ4U test, 4 days; assay type: cell-based; settings: Homo sapiens
Protocol: as §1

BxPC3 - Pankreaskrebs = test: MTT assay / EZ4U test, 4 days; assay type: cell-based; settings: Homo sapiens
Protocol: as §1

CRO2B - karzinoid = test: MTT assay / EZ4U test, 4 days; assay type: cell-based; settings: read-out: IC50 CR02B
Protocol: as §1

HT29 - Kolonkarzinom = test: MTT assay / EZ4U test, 4 days; assay type: cell-based; settings: Homo sapiens
Protocol: as §1

MIAPaCa2 - Pankreaskrebs = test: MTT assay / EZ4U test, 4 days; assay type: cell-based; settings: Homo sapiens
Protocol: as §1

[2] = system: IEC6 - mausartige Enterozyten; test: MTT assay / EZ4U test, 4 days; assay type: cell-based; settings: Rattus norvegicus
Protocol: as §1

[3] = system: NIH3T3 - mausartige Fibroblasten; test: MTT assay / EZ4U test, 4 days; assay type: cell-based; settings: Mus musculus
Protocol: as §1

Normale Zellen = test: Mean IC50 over all normal cell lines; assay type: cell-based; settings: read-out: IC50 Normale Zellen (Durchschnitt ± SD)
Protocol: as §1
(§2) Mittelwerte-IC50 für alle Krebs- oder normalen Zelllinien: […]

[4] = system: BxPC3 (pankreatisches Adenokarzinom); test: MTT test, triplicate, two-fold dilutions; assay type: cell-based; settings: Homo sapiens
Protocol: (§3) Die Silan wurden in Ethanol aufgelöst und in Zellkulturmedien in Konzentrationen von bis zu 500 µg/ml resuspendiert. Es wurden MTT Tests in dreifacher Ausführung durchgeführt, für welche doppelte Lösungen (7 Schritte) und colo205 (Kofon-Karzinom), BxPC3 (pankreatisches Adenokarzinom) sowie T47D (Brustkrebs) benutzt wurden.

T47D (Brustkrebs) = test: MTT test, triplicate, two-fold dilutions; assay type: cell-based; settings: Homo sapiens, T47D, read-out: IC50 T47D
Protocol: as §3

colo205 (Kofon-Karzinom) = test: MTT test, triplicate, two-fold dilutions; assay type: cell-based; settings: Homo sapiens
Protocol: as §3

Krebszellen = test: Mean IC50 over all cancer cell lines; assay type: cell-based; settings: read-out: IC50 Krebszellen (Durchschnitt ± SD)
Protocol: as §1, §2

[5] = system: Panc1 Pankreaskrebszellen; test: subG1 apoptotic fraction, propidium iodide, flow cytometry; assay type: cell-based; settings: 50 µg/ml, 4 Tage
Protocol: (§4) Die Zellen (IEC6 mausartige Enterozyten; Panc1 Pankreaskrebszellen; Colo205 Kolonkarzinom) wurden mit 50 µg/ml Silanen inkubiert und nach 4-tägiger Aussetzung auf DNA eingefärbt (Propidiumiodid). Die SubG1 Zellteilung wurde mittels Durchflusscytometrie bestimmt.

[6] = system: IEC6 mausartige Enterozyten; test: as above; assay type: cell-based; settings: 50 µg/ml, 4 Tage
Protocol: as §4

Colo205 Kolonkarzinom = test: as above; assay type: cell-based; settings: 50 µg/ml, 4 Tage
Protocol: as §4

Osteosarkome = test: Effect on osteosarcomas
Maus = test: Pharmacological observation in the mouse (central, vegetative and toxic effects, acute toxicity); assay type: in vivo
Source text: Pharmakologische Untersuchungen an der Maus
Die Verbindungen wurden an der Maus auf zentrale, vegetative und toxische Effekte geprüft. Durch systemische Einzelbeobachtungen sind neben der akuten Toxizität (orienberende letale Dosis, oLD) zentrale und vegetative Wirkungen der Testsubstanzen, insbesondere Effekte auf die Motorik und das Reaktionsvermögen, die Haut- und Rektaltemperatur sowie auf die Pupillenmotorik erfasst worden. Die getesteten Dosierungen betrugen 5 •10^-4, 1 • 10^-3 und 5 • 10^-3 mol/kg Körpergewicht Letale Wirkungen konnten bei keiner der Verbindungen beobachtet werden. Die oLD lag für Di(tetradecanoyloxy)dimethylsilan und Di(octadecanoyloxy)dimethylsilan unter 1 • 10^-3 mol/kg Körpergewicht für alle übrigen Verbindungen unter 5 • 10^-3 mollkg Körpergewicht.

N[C@@H](Cc1ccccc1)C(=O)N[C@@H](Cc1ccccc1)C(=O)N[C@@H](Cc1ccccc1)C(=O)N[C@@H](Cc1ccccc1)C(=O)N[C@@H](Cc1ccccc1)C(=O)N[C@@H](Cc1ccccc1)C(=O)N[C@@H](Cc1ccccc1)C(=O)N[C@@H](Cc1ccccc1)C(=O)N[C@@H](Cc1ccccc1)C(=O)N[C@@H](Cc1ccccc1)C(=O)O[Si](OC(=O)[C@H](Cc1ccccc1)NC(=O)[C@H](Cc1ccccc1)NC(=O)[C@H](Cc1ccccc1)NC(=O)[C@H](Cc1ccccc1)NC(=O)[C@H](Cc1ccccc1)NC(=O)[C@H](Cc1ccccc1)NC(=O)[C@H](Cc1ccccc1)NC(=O)[C@H](Cc1ccccc1)NC(=O)[C@H](Cc1ccccc1)NC(=O)[C@@H](N)Cc1ccccc1)(c1ccccc1)c1ccccc1 [Diphenyl bis(decaphenylalanyl) silylester] (I: H-FFFFFFFFFF / II: H-FFFFFFFFFF; linker I:C-II:C via X2)
Wirkung auf Plasmozytome (Plasmozytome): zeigen eine Wirkung

N[C@@H](Cc1ccccc1)C(=O)N[C@@H](Cc1ccccc1)C(=O)N[C@@H](Cc1ccccc1)C(=O)N[C@@H](Cc1ccccc1)C(=O)N[C@@H](Cc1ccccc1)C(=O)N[C@@H](Cc1ccccc1)C(=O)O[Si](OC(=O)[C@H](Cc1ccccc1)NC(=O)[C@H](Cc1ccccc1)NC(=O)[C@H](Cc1ccccc1)NC(=O)[C@H](Cc1ccccc1)NC(=O)[C@H](Cc1ccccc1)NC(=O)[C@@H](N)Cc1ccccc1)(c1ccccc1)c1ccccc1 [Diphenyl bis(hexaphenylalanyl)silylester] (I: H-FFFFFF / II: H-FFFFFF; linker I:C-II:C via X2)
Wirkung auf Plasmozytome (Plasmozytome): zeigen eine Wirkung

N[C@@H](Cc1ccccc1)C(=O)N[C@@H](Cc1ccccc1)C(=O)N[C@@H](Cc1ccccc1)C(=O)N[C@@H](Cc1ccccc1)C(=O)O[Si](OC(=O)[C@H](Cc1ccccc1)NC(=O)[C@H](Cc1ccccc1)NC(=O)[C@H](Cc1ccccc1)NC(=O)[C@@H](N)Cc1ccccc1)(c1ccccc1)c1ccccc1 [Diphenyl bis(tetraphenylalanyl)silylester]
Wirkung auf Plasmozytome (Plasmozytome): zeigen eine Wirkung

C[Si](C)(OC(=O)CNC(=O)CNC(=O)CNC(=O)CNC(=O)CNC(=O)CNC(=O)CNC(=O)CNC(=O)CN)OC(=O)CNC(=O)CNC(=O)CNC(=O)CNC(=O)CNC(=O)CNC(=O)CNC(=O)CNC(=O)CN [Dimethyl bis(nonaglycyl)silylester]
Wirkung gegen Medulloblastome (Medulloblastome): zeigen eine Wirkung

CC[Si](CC)(OC(=O)CNC(=O)CNC(=O)CNC(=O)CN)OC(=O)CNC(=O)CNC(=O)CNC(=O)CN [Diethyl bis(tetraglycyl)silylester] (I: H-GGGG / II: H-GGGG; linker I:C-II:C via OSiEt2O)
Wirkung gegen Medulloblastome (Medulloblastome): zeigen eine Wirkung

NCC(=O)NCC(=O)NCC(=O)NCC(=O)O[Si](OC(=O)CNC(=O)CNC(=O)CNC(=O)CN)(c1ccccc1)c1ccccc1 [Diphenyl bis(tetraglycyl)silylester]
Wirkung auf Plasmozytome (Plasmozytome): zeigen eine Wirkung

N[C@@H](Cc1ccccc1)C(=O)N[C@@H](Cc1ccccc1)C(=O)N[C@@H](Cc1ccccc1)C(=O)O[Si](OC(=O)[C@H](Cc1ccccc1)NC(=O)[C@H](Cc1ccccc1)NC(=O)[C@@H](N)Cc1ccccc1)(c1ccccc1)c1ccccc1 [Diphenyl bis(triphenylalanyl)silylester]
Wirkung auf Plasmozytome (Plasmozytome): zeigen eine Wirkung

CCCCCCCCCCCCCCCC(=O)O[Si](CC)(CC)OC(=O)CCCCCCCCCCCCCCC [Si11, Di (hexadecanoyloxy) diethylsilan]
IC50 ([1]; WI-38, read-out: IC50 WI38): 23.7 µg/mL (≈ 39.7 µM)
IC50 (A431 Epidermalkarzinom; A-431, read-out: IC50 A431): 21.9 µg/mL (≈ 36.7 µM)
IC50 (BxPC3 - Pankreaskrebs; BXPC-3, read-out: IC50 BxPC3): 20 µg/mL (≈ 33.5 µM)
IC50 (CRO2B - karzinoid): 18.9 µg/mL (≈ 31.7 µM)
IC50 (HT29 - Kolonkarzinom; HT-29, read-out: IC50 HT29): 23.1 µg/mL (≈ 38.7 µM)
IC50 (MIAPaCa2 - Pankreaskrebs; MIA PaCa-2, read-out: IC50 MlAPaCa2): 82.5 µg/mL (≈ 138 µM)
IC50 ([2]; IEC-6, read-out: IC50 IEC6): 21.2 µg/mL (≈ 35.5 µM)
IC50 ([3]; NIH3T3, read-out: IC50 NIH3T3): 25 µg/mL (≈ 41.9 µM)
IC50 (Normale Zellen): 23.3 µg/mL (≈ 39 µM)
IC50 ([4]; BXPC-3, read-out: IC50 BxPC3): 10 µg/mL (≈ 16.7 µM)
IC50 (T47D (Brustkrebs)): 7 µg/mL (≈ 11.7 µM)
IC50 (colo205 (Kofon-Karzinom); COLO 205, read-out: IC50 Colo205): 300 µg/mL (≈ 502 µM)
IC50 (Krebszellen): 21.1 µg/mL (≈ 35.3 µM)
subG1 apoptotische Zellteilung Panc1 [5]: 37,7 ± 1,8
subG1 apoptotische Zellteilung IEC6 [6]: 7.0 ± 0,14
subG1 apoptotische Zellteilung Colo205 (Colo205 Kolonkarzinom): 3,3 ± 0,14

N[C@@H](Cc1ccccc1)C(=O)N[C@@H](Cc1ccccc1)C(=O)N[C@@H](Cc1ccccc1)C(=O)N[C@@H](Cc1ccccc1)C(=O)N[C@@H](Cc1ccccc1)C(=O)N[C@@H](Cc1ccccc1)C(=O)N[C@@H](Cc1ccccc1)C(=O)O[Si](OC(=O)[C@H](Cc1ccccc1)NC(=O)[C@H](Cc1ccccc1)NC(=O)[C@H](Cc1ccccc1)NC(=O)[C@H](Cc1ccccc1)NC(=O)[C@H](Cc1ccccc1)NC(=O)[C@H](Cc1ccccc1)NC(=O)[C@@H](N)Cc1ccccc1)(c1ccccc1)c1ccccc1 [Diphenyl bis(heptaphenylalanyl)silylester] (I: H-FFFFFFF / II: H-FFFFFFF; linker I:C-II:C via X2)
Wirkung auf Plasmozytome (Plasmozytome): zeigen eine Wirkung

N[C@@H](Cc1ccccc1)C(=O)N[C@@H](Cc1ccccc1)C(=O)N[C@@H](Cc1ccccc1)C(=O)N[C@@H](Cc1ccccc1)C(=O)N[C@@H](Cc1ccccc1)C(=O)N[C@@H](Cc1ccccc1)C(=O)N[C@@H](Cc1ccccc1)C(=O)N[C@@H](Cc1ccccc1)C(=O)N[C@@H](Cc1ccccc1)C(=O)O[Si](OC(=O)[C@H](Cc1ccccc1)NC(=O)[C@H](Cc1ccccc1)NC(=O)[C@H](Cc1ccccc1)NC(=O)[C@H](Cc1ccccc1)NC(=O)[C@H](Cc1ccccc1)NC(=O)[C@H](Cc1ccccc1)NC(=O)[C@H](Cc1ccccc1)NC(=O)[C@H](Cc1ccccc1)NC(=O)[C@@H](N)Cc1ccccc1)(c1ccccc1)c1ccccc1 [Diphenyl bis(nonaphenylalanyl)silylester] (I: H-FFFFFFFFF / II: H-FFFFFFFFF; linker I:C-II:C via X2)
Wirkung auf Plasmozytome (Plasmozytome): zeigen eine Wirkung

CCCCCCCCCCCCCCCC(=O)O[Si](C)(C)OC(=O)CCCCCCCCCCCCCCC [Si16, Di (hexadecanoyloxy) dimethylsilan]
Wirkung auf Osteosarkome (Osteosarkome): zeigen eine Wirkung
IC50 ([1]; WI-38, 200 - 12.5 µg/ml, 4 Tage, read-out: IC50 WI38): 36 µg/mL (≈ 63.3 µM)
IC50 (A431 Epidermalkarzinom; A-431, 200 - 12.5 µg/ml, 4 Tage, read-out: IC50 A431): 34.5 µg/mL (≈ 60.6 µM)
IC50 (BxPC3 - Pankreaskrebs; BXPC-3, 200 - 12.5 µg/ml, 4 Tage, read-out: IC50 BxPC3): 12.5 µg/mL (≈ 22 µM)
IC50 (CRO2B - karzinoid; 200 - 12.5 µg/ml, 4 Tage): 31.5 µg/mL (≈ 55.4 µM)
IC50 (HT29 - Kolonkarzinom; HT-29, 200 - 12.5 µg/ml, 4 Tage, read-out: IC50 HT29): 34.4 µg/mL (≈ 60.5 µM)
IC50 (MIAPaCa2 - Pankreaskrebs; MIA PaCa-2, 200 - 12.5 µg/ml, 4 Tage, read-out: IC50 MlAPaCa2): 400 µg/mL (≈ 703 µM)
IC50 ([2]; IEC-6, 200 - 12.5 µg/ml, 4 Tage, read-out: IC50 IEC6): 17.2 µg/mL (≈ 30.2 µM)
IC50 ([3]; NIH3T3, 200 - 12.5 µg/ml, 4 Tage, read-out: IC50 NIH3T3): 42.5 µg/mL (≈ 74.7 µM)
IC50 (Normale Zellen; mean over normal cell lines): 31.9 µg/mL (≈ 56.1 µM)
IC50 ([4]; BXPC-3, up to 500 µg/ml, read-out: IC50 BxPC3): 45 µg/mL (≈ 79.1 µM)
IC50 (T47D (Brustkrebs); up to 500 µg/ml): 15 µg/mL (≈ 26.4 µM)
IC50 (colo205 (Kofon-Karzinom); COLO 205, up to 500 µg/ml, read-out: IC50 Colo205): 500 µg/mL (≈ 879 µM)
IC50 (Krebszellen; mean over cancer cell lines): 28.2 µg/mL (≈ 49.6 µM)
zentrale, vegetative und toxische Effekte (Verhaltensänderungen) (Maus; 1•10^-3 mol/kg): keine Verhaltensänderungen
zentrale, vegetative und toxische Effekte (Verhaltensänderungen) (Maus; 5•10^-3 mol/kg): Ataxie, Piloerektion, Grifistärkesenkung
zentrale, vegetative und toxische Effekte (Verhaltensänderungen) (Maus; 5•10^-4 mol/kg): keine Verhaltensänderungen
subG1 apoptotische Zellteilung Panc1 [5]: 22,2 ± 1,6
subG1 apoptotische Zellteilung IEC6 [6]: 2,45±0,21
subG1 apoptotische Zellteilung Colo205 (Colo205 Kolonkarzinom): 3,55 ± 0,07

— patent EP1948196B1, “USE OF TETRAORGANOSILICON COMPOUNDS” (Salama, Zoser B., priority 2005, dated 2007)
